Reference: US8901314B2, “Substituted pyrazoles as N-type calcium channel blockers” (Janssen Pharmaceutica NV, priority 2012, dated 2014)

Columns and labels:
[1] = tested on: Cav2.2 (N-type calcium channel; α1B, α2δ and β3 subunits stably expressed in HEK293 cells); test: Automated electrophysiology assay (QPatch-HT patch clamp); assay type: cell-based; conditions: 0.1 μM; for QPatch % Inhibition, High Freq: high frequency stimulation (15th pulse of 5 Hz train); for QPatch % Inhibition, Low Freq: low frequency stimulation (1st pulse of train)
Protocol: The Cav2.2 (α1B) subunit (GenBank accession no. AAO53230; supplied by Lipscombe's laboratory at Brown University) was subcloned into pcDNA3.1, whereas the α2δ (M86621) and β3 (M88751) subunits were subcloned into pBudCE4.1 vectors. Stable cell lines expressing all three subunits were generated according to the following procedure: 1) HEK293 cells were transfected with α2δ−1/β3 expression constructs resulting in a stable cell line expressing α2δ−1 and β3 subunits that were selected under 200 μg/mL of Zeocin; 2) a stable cell line expressing α2δ−1/β3 subunits in high quantity as evidenced in its Western blots was isolated from the colony and purified; 3) this cell line was further transfected with Cav2.2 expression constructs, from which cells were subsequently selected under 400 μg/mL G418 and 200 μg/mL Zeocin; 4) these cells were clonally isolated, expanded and screened by Western blot analysis for expressing all three subunits
Cultures of cells stably expressing Cav2.2 were maintained at 37° C. in low glucose-containing Dulbecco's Modified Eagle medium (low glucose) under a 5% CO2 atmosphere. The medium was supplemented with 10% fetal bovine serum, 2 mM L-glutamine, 100 IU/mL penicillin, […] streptomycin, 400 μg/mL G418 and 200 μg/mL Zeocin.
High-throughput automated patch clamp system experiments were carried out using instruments (QPatch-HT) available from Sophion Biosciences, Inc. North Brunswick, N.J. Cells were grown in T175 flasks to 50%-90% confluence were enzymatically treated with Deatchin (Genlantis, San Diego, Calif., U.S.A.), centrifuged, rinsed and resuspended in 293 SFM II media (Life Technologies, Grand Island, N.Y., U.S.A.) supplemented with 25 mM HEPES (Sigma-Aldrich, St. Louis, Mo., U.S.A.) to a concentration of 2−3×10^6 cells/mL. Cells were added to automated cell preparation station on the QPatch-HT (Sophion Biosciences, North Brunswick, N.J., U.S.A.) and following a 10- to 30-min recovery period with gentle stirring, the assay protocol was initiated. During the automated cell preparation, cells were collected, centrifuged and resuspended in an extracellular (EC) solution containing 132 mM NaCl, 1.8 mM CaCl2, 5.4 mM KCl, 0.8 mM MgCl2, 10 mM glucose, and 10 mM HEPES (pH=7.4), adjusted with sucrose to 315 m0sm. The QPlate was primed with an intracellular solution containing 135 CsCl, 10 mM EGTA, 4 MgATP, 0.3 NaGTP, and 20 mM HEPES (pH=7.2), adjusted to approximately 290 m0sm with deionized water and the EC solution. Cells were added to the prepared QPlate wells by robotic pipettes of the QPatch-HT.
For cells determined to be in stable whole-cell patch clamp, the EC solution was replaced with a barium (Ba)/triethylammonium (TEA) solution containing 140 mM TEA-Cl, 10 mM BaCl2, 0.8 mM MgCl2, 10 mM glucose, and 10 mM HEPES (pH=7.4). High (40 mM) BaCl2 concentrations were made with adjustments of TEA-Cl (90 mM) to maintain the osmolarity. From a resting potential of −80 mV, a train of depolarizing pulses (15 pulses at 5 Hz, +20 mV) was delivered to the cell once every 30 sec for eight trains (4 min total), and the resulting currents were measured during a control period (no compound). This protocol was repeated for each subsequent addition of control buffer with or without compound (three periods total, each with four trains). The current generated in the 1st and 15th pulses of the last train of each period in the presence of each drug concentration was normalized to the current generated during the control period at the respective pulses (representing low- and high frequency stimulation, respectively). Data from both the second and third drug application period were analyzed for each cell. A final addition of Ba/TEA solution containing 60-100 uM CdCl2 was made to block all N-type current and “zero” the currents for each cell. A buffer/compound additions were made using a “spitting” feature of the QPatch-HT, which added three repretitions of 5 μL solution at the beginning of each recording period.

[2] = molecular target: α1B (Cav2.2), β3 and α2δ subunits of the N-type calcium channel (stable HEK cell line) (Rattus norvegicus, UniProt Q02294); test: Calcium-dye indicator assay (FDSS, KCl depolarization); assay type: cell-based; conditions: calcium mobilization response to 50 mM KCl; six-point concentration-response
Protocol: A stable cell line (HEK parent) co-expressing the α1B (Cav2.2), β3 and α2δ subunits of the N-type calcium channel subunits was used. These cells were routinely grown as monolayers in low glucose-containing Dulbecco's Modified Eagle Medium supplemented with 10% FBS, 2 mM L-glutamine, 100 I.U./mL penicillin, 100 μg/mL streptomycin, 400 μg/mL G418 and 200 μg/mL Zeocin (split ratio=1:5). Cells were maintained in 5% CO2 at 37° C. Compounds of Formula (I) were prepared as 10 mM stocks in DMSO from neat compound, if available. Otherwise, the 5 or 10 mM DMSO stock solutions provided in-house were used.
Calcium mobilization responses to KCl depolarization were evaluated by measuring the intensity of calcium-mediated fluorescent signal in the presence of BD Calcium Assay Dye (BD Biosciences, Franklin Lakes, N.J., U.S.A.), utilizing a Functional Drug Screening System (FDSS) by Hamamatsu Corporation (Bridgewater, N.J., U.S.A.).
Twenty-four hours prior to assay, cells were seeded in clear-base poly-D-lysine coated 384-well plates (BD Biosciences) at a density of 5,000 cells per well in culture medium and grown overnight in 5% CO2 at 37° C. On the day of assay growth media were removed and cells were loaded with BD calcium assay dye (BD Biosciences) for 35 min at 37° C. under 5% CO2 and then for 25 min at room temperature. Utilizing the FDSS, cells were exposed to representative compounds of Formula (I) at varying concentrations and intracellular calcium was measured for 5 min prior to the addition of 50 mM KCl for an additional 3 min of measurement.
Maximal fluorescence intensity (FI) achieved upon addition of 50 mM KCl was exported from the FDSS software and further analyzed using GraphPad Prism 4 (Graph Pad Software Inc., CA, U.S.A.). Data were normalized to the maximum average counts from quadruplicate wells for each condition in the presence of 50 mM KCl and to the minimum average counts in the presence of buffer. Theoretical curves were generated using nonlinear regression curve-fitting analysis of either sigmoidal concentration-response or sigmoidal concentration-response (variable slope), and the IC50 values with the best-fit dose curve determined by GraphPad Prism were reported.

COc1ccccc1-n1nc(C2CC(C)(C)OC2(C)C)cc1-c1ccc(Cl)cc1 (stereo not shown) [Compound 98, 5-(4-Chlorophenyl)-1-(2-methoxyphenyl)-3-(2,2,5,5-tetramethyltetrahydrofuran-3-yl)-1H-pyrazole]
QPatch % Inhibition, High Freq [1]: 61% | QPatch % Inhibition, Low Freq [1]: 44.5% | IC50 [2]: 5.1 nM

CCOc1ccc(-c2cc(C3CC(C)(C)OC(C)(C)C3)nn2-c2ccccc2OC)cn1 [Compound 19, 2-Ethoxy-5-[1-(2-methoxyphenyl)-3-(2,2,6,6-tetramethyltetrahydro-2H-pyran-4-yl)-1H-pyrazol-5-yl]-pyridine]
QPatch % Inhibition, High Freq [1]: 21% | QPatch % Inhibition, Low Freq [1]: 10% | IC50 [2]: 5.4 nM

COc1ccccc1-n1nc(C2CC(C)(C)OC(C)(C)C2)cc1-c1ccccc1 [Compound 16, 1-(2-Methoxyphenyl)-5-phenyl-3-(2,2,6,6-tetramethyltetrahydro-2H-pyran-4-yl)-1H-pyrazole]
QPatch % Inhibition, High Freq [1]: 51% | QPatch % Inhibition, Low Freq [1]: 37% | IC50 [2]: 5.1 nM

COc1ccc(-c2cc(C3CC(C)(C)OC(C)(C)C3)nn2-c2ccccc2OC)cc1OC [Compound 29, 5-(3,4-Dimethoxyphenyl)-1-(2-methoxyphenyl)-3-(2,2,6,6-tetramethyltetrahydro-2H-pyran-4-yl)-1H-pyrazole]
IC50 [2]: 58 nM

COc1ccccc1-n1nc(C2CC(C)(C)OC(C)(C)C2)cc1-c1cc2ccccc2o1 [Compound 41, 5-(1-Benzofuran-2-yl)-1-(2-methoxyphenyl)-3-(2,2,6,6-tetramethyltetrahydro-2H-pyran-4-yl)-1H-pyrazole]
IC50 [2]: 65 nM

COc1ccccc1-n1nc(C2CC(C)(C)OC(C)(C)C2)cc1-c1ccc2[nH]ccc2c1 [Compound 42, 5-[1-(2-Methoxyphenyl)-3-(2,2,6,6-tetramethyltetrahydro-2H-pyran-4-yl)-1H-pyrazol-5-yl]-1H-indole]
IC50 [2]: 55 nM

COc1ccccc1-n1nc(C2CCOCC2)cc1-c1ccc(Cl)cc1 [Compound 71, 5-(4-Chlorophenyl)-1-(2-methoxyphenyl)-3-(tetrahydro-2H-pyran-4-yl)-1H-pyrazole]
IC50 [2]: 31 nM

COc1ccccc1-n1nc(C2CC(C)(C)OC(C)(C)C2)cc1-c1ncc(C)s1 [Compound 38, 2-[1-(2-Methoxyphenyl)-3-(2,2,6,6-tetramethyltetrahydro-2H-pyran-4-yl)-1H-pyrazol-5-yl]-5-methyl-1,3-thiazole]
IC50 [2]: 110 nM

COc1ccccc1-n1nc(C2CC(C)(C)OC(C)(C)C2)cc1-c1ccc(N(C)C)cc1 [Compound 11, 4-[1-(2-Methoxyphenyl)-3-(2,2,6,6-tetramethyltetrahydro-2H-pyran-4-yl)-1H-pyrazol-5-yl]-N,N-dimethylaniline]
IC50 [2]: 2.4 nM

CC1(C)CC(c2cc(-c3ccc(Cl)cc3)n(-c3ccccc3N3CCCC3)n2)CC(C)(C)O1 [Compound 76, 5-(4-Chlorophenyl)-1-(2-pyrrolidin-1-ylphenyl)-3-(2,2,6,6-tetramethyltetrahydro-2H-pyran-4-yl)-1H-pyrazole]
IC50 [2]: 100 nM

COc1ccccc1-n1nc(C2CC(C)(C)OC(C)(C)C2)cc1-c1cccnc1 [Compound 45, 3-[1-(2-Methoxyphenyl)-3-(2,2,6,6-tetramethyltetrahydro-2H-pyran-4-yl)-1H-pyrazol-5-yl]-pyridine]
IC50 [2]: 71 nM

COc1ccccc1-n1nc(C2CC(C)(C)OC(C)(C)C2)cc1C1=CCCC1 [Compound 37, 5-Cyclopent-1-en-1-yl-1-(2-methoxyphenyl)-3-(2,2,6,6-tetramethyltetrahydro-2H-pyran-4-yl)-1H-pyrazole]
IC50 [2]: 34 nM

COc1cc(OC)cc(-c2cc(C3CC(C)(C)OC(C)(C)C3)nn2-c2ccccc2OC)c1 [Compound 43, 5-(3,5-Dimethoxyphenyl)-1-(2-methoxyphenyl)-3-(2,2,6,6-tetramethyltetrahydro-2H-pyran-4-yl)-1H-pyrazole]
IC50 [2]: 58 nM

CC(C)Oc1ccccc1-n1nc(C2CC(C)(C)OC(C)(C)C2)cc1-c1ccc(Cl)cc1 [Compound 7, 5-(4-Chlorophenyl)-1-[2-(1-methylethoxy)phenyl]-3-(2,2,6,6-tetramethyltetrahydro-2H-pyran-4-yl)-1H-pyrazole]
IC50 [2]: 1.2 nM

COc1ccccc1-n1nc(C2CC(C)(C)OC(C)(C)C2)cc1-c1ccc2c(ccn2C)c1 [Compound 21, 5-[1-(2-Methoxyphenyl)-3-(2,2,6,6-tetramethyltetrahydro-2H-pyran-4-yl)-1H-pyrazol-5-yl]-1-methyl-1H-indole]
IC50 [2]: 5.7 nM

COc1ccccc1-n1nc(C2CC(C)(C)OC(C)(C)C2)cc1-c1ccc(OC(C)C)cc1 [Compound 24, 1-(2-Methoxyphenyl)-5-[4-(1-methylethoxy)phenyl]-3-(2,2,6,6-tetramethyltetrahydro-2H-pyran-4-yl)-1H-pyrazole]
IC50 [2]: 11 nM

COc1ccccc1-n1nc(C2CC(C)(C)OC(C)(C)C2)cc1-c1ccnc(C)c1 [Compound 33, 4-[1-(2-Methoxyphenyl)-3-(2,2,6,6-tetramethyltetrahydro-2H-pyran-4-yl)-1H-pyrazol-5-yl]-2-methylpyridine]
IC50 [2]: 82 nM

COc1ccccc1-n1nc(C2=CC(C)(C)OC2(C)C)cc1-c1ccc(Cl)cc1 [Compound 97, 5-(4-Chlorophenyl)-1-(2-methoxyphenyl)-3-(2,2,5,5-tetramethyl-2,5-dihydrofuran-3-yl)-1H-pyrazole]
IC50 [2]: 13 nM

COc1ccccc1-n1nc(C2CC(C)(C)OC(C)(C)C2)cc1-c1ccc2c(c1)OCCO2 [Compound 27, 5-(2,3-Dihydro-1,4-benzodioxin-6-yl)-1-(2-methoxyphenyl)-3-(2,2,6,6-tetramethyltetrahydro-2H-pyran-4-yl)-1H-pyrazole]
IC50 [2]: 1.5 nM
